Consider 2 compounds from patent US6423704B1, “Substituted 4-(1H-benzimidazol-2-yl)[1,4]diazepanes useful for the treatment of allergic diseases” (Aventis Pharmaceuticals Inc., priority 1995, dated 2002).

Where a name gives a salt, the structure may show the parent alone.

For `CCOCCn1c(N2CCCN(CCC3(c4ccccn4)CCN(C(=O)c4cc(OC)c(OC)c(OC)c4)C3)CC2)nc2ccccc21` (centres unmarked) [Example 32, 1-(3,4,5-Trimethoxybenzoyl)-3-(2-(4-(1-(2-ethoxyethyl)-1H-benzimidazol-2-yl)[1,4]diazepan-1-yl)ethyl)-3-(pyrid-2-yl)pyrrolidine], the melting point (usually the temperature of the solid-liquid transition) was in the range of 40 to 42 °C. The value for `CCOCCn1c(N2CCCN(CCC3(c4ccc(OC)c(OC)c4)CCN(C(=O)c4cc(OC)c(OC)c(OC)c4)C3)CC2)nc2ccccc21` (centres unmarked) (as salt: salt) [Example 1, 1-(3,4,5-Trimethoxybenzoyl)-3-(2-(4-(1-(2-ethoxyethyl)-1H-benzimidazol-2-yl)[1,4]diazepan-1-yl)ethyl)-3-(3,4-dimethoxyphenyl)pyrrolidine] was 90 to 100 °C.
